{"source": "patent US20120107888A1", "about": "“MODULATION OF FERMENTATION PRODUCTS THROUGH VITAMIN SUPPLEMENTATION” (Qteros, Inc., priority 2011, published 2012)", "tested_on": "C. phytofermentans", "settings": "basal medium; ethanol production from pretreated corn stover", "experimental": "To examine the effect of individual nutrients (e.g., vitamins or amino acids) on the growth and/or ethanol production of C. phytofermentans, complex nutrients such as yeast extract were reduced to a minimal concentration that will permit sub-optimal growth. Each specific nutrient is added in a titration of increasing amount until a “saturation” of effect is observed.\nCorn Stover, Mono and Dibasic Potassium Phosphate and Sodium Chloride were sterilized by autoclaving and the remaining components were added aseptically to each fermentation flask. DBY and CSP were separately prepared each as 100 g/L stocks and autoclaved.\nAll solutions and materials were degassed prior to use. Prior to inoculation, all flasks receive a sterile addition of commercial cellulases (from Novozymes) consisting of (per 100 mL medium): 0.25 mL Cat# NS50013 and 0.83 mL of diluted (1/10 in water) Cat# NS22002. […]\nFollowing inoculation, flasks were placed in shaking fermenters at 35° C. with agitation at 175 rpm and sampled daily. […] Samples were analyzed for sugars (cellobiose, xylose, arabinose, and glucose) and fermentation products (formic, lactic, and acetic acids and ethanol) using HPLC."}
{"smiles": "O=C(O)c1cccnc1", "note": "[nicotinic acid, Nicotinic acid]", "values": [{"measurement": "nicotinic acid supplementation above which a saturation effect is seen", "value": "> 10", "unit": "mg/L"}]}
